In publication PMC8041284, “Tunable Methacrylamides for Covalent Ligand Directed Release Chemistry” (Journal of the American Chemical Society, 2021):
Like-named read-outs stand apart in the source and are kept apart here.

Biological target: BTK (Homo sapiens, UniProt Q06187)
Experiment: biochemical
[1] = read-out: BTK inhibition (%), 0.75 uM BTK, […] probe 3l, 15 min preincubation

Chain of BTK (Q06187 402-655 limits assumed): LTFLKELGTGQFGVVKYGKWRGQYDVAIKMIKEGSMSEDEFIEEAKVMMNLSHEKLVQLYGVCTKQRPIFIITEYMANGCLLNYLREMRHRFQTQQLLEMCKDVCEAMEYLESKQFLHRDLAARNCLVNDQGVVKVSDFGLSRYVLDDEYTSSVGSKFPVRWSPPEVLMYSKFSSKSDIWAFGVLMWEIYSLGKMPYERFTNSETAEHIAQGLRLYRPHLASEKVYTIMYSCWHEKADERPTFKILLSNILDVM

Row | Compound | inhibition at 10 µM [1] [%] | inhibition at 10 µM (read-out: BTK inhibition (%)) [%]
1 | Cc1ccnc(NS(=O)(=O)c2ccc(N)cc2)n1 [PCM-0086511] | 1.6 | –
2 | COc1ccccc1OCC(O)CO (stereo not shown) [PCM-0086515] | -2.3 | –
3 | Nc1[nH]c(=O)ncc1F [PCM-0086523] | -6.2 | –
4 | C[C@@]12N[C@@H](Cc3ccccc31)c1ccccc12 [PCM-0086525] | – | -25.7
5 | CCC(=O)O[C@]1(C(=O)CCl)[C@@H](C)C[C@H]2[C@@H]3CCC4=CC(=O)C=C[C@]4(C)[C@@]3(F)[C@@H](O)C[C@@]21C [PCM-0086533] | 3.4 | –
6 | Cn1cc[nH]c1=S [PCM-0086540] | 14.8 | –
7 | CC(O)(P(=O)(O)O)P(=O)(O)O [PCM-0086550] | -27.2 | –
8 | C[n+]1ccccc1/C=N/O [PCM-0086551] | -18.5 | –
9 | CC(COc1ccccc1)N(CCCl)Cc1ccccc1 (stereo not shown) [PCM-0086553] | 17.1 | –
10 | O=c1cc(-c2ccc(O)c(O)c2)oc2cc(O)cc(O)c12 [PCM-0086559] | 84.8 | –
11 | CN(C)CCOc1ccc(/C(=C(/CCCl)c2ccccc2)c2ccccc2)cc1 [PCM-0086582] | 4.1 | –
12 | COc1ccc(-c2coc3cc(O)cc(O)c3c2=O)cc1 [PCM-0086643] | 2.3 | –
13 | OCc1ccccc1O[C@@H]1O[C@H](CO)[C@@H](O)[C@H](O)[C@H]1O [PCM-0086703] | -7.6 | –
14 | COc1ccc(-c2cc(=O)c3c(OC)c(OC)c(OC)c(OC)c3o2)cc1 [PCM-0086738] | -26.9 | –
15 | O=C1N=C(O)CN1/N=C/c1ccc(-c2ccc([N+](=O)[O-])cc2)o1 [PCM-0086748] | 28 | –
16 | O=C(O)C1=CO[C@@H](O[C@@H]2O[C@H](CO)[C@@H](O)[C@H](O)[C@H]2O)[C@@H]2C(CO)=CC[C@H]12 [PCM-0086855] | -2.8 | –
17 | O=C(O)c1cc(O)c2c(c1)[C@@H]([C@H]1c3cc(C(=O)O)cc(O)c3C(=O)c3c(O[C@@H]4O[C@H](CO)[C@@H](O)[C@H](O)[C@H]4O)cccc31)c1cccc(O[C@@H]3O[C@H](CO)[C@@H](O)[C@H](O)[C@H]3O)c1C2=O [PCM-0086913] | 84.1 | –
18 | O=c1c(O)c(-c2ccc(O)cc2)oc2cc(O)cc(O)c12 [PCM-0087037] | 67.7 | –
19 | O=C(/C=C/c1ccc(O)c(O)c1)O[C@@H]1C[C@](O)(C(=O)O)C[C@@H](O)[C@H]1O [PCM-0087069] | -10.1 | –
20 | COc1ccc(-c2coc3cc(O)ccc3c2=O)cc1 [PCM-0087244] | 0.8 | –
21 | COC(=O)C1=CO[C@@H](O[C@@H]2O[C@H](CO)[C@@H](O)[C@H](O)[C@H]2O)[C@@H]2C(CO)=CC[C@H]12 [PCM-0087450] | -1.6 | –
22 | COc1ccc(-c2cc(=O)c3c(O)cc(O[C@@H]4O[C@H](CO[C@@H]5O[C@@H](C)[C@H](O)[C@@H](O)[C@H]5O)[C@@H](O)[C@H](O)[C@H]4O)cc3o2)cc1O [PCM-0087491] | -5.1 | –
23 | C[C@@H]1O[C@@H](OC[C@H]2O[C@@H](Oc3c(-c4ccc(O)c(O)c4)oc4cc(O)cc(O)c4c3=O)[C@H](O)[C@@H](O)[C@@H]2O)[C@H](O)[C@H](O)[C@H]1O [PCM-0087529] | -2.1 | –
24 | O=C1c2c(O)cc(O)cc2O[C@H](c2ccc(O)c(O)c2)[C@H]1O [PCM-0087882] | 11 | –
25 | COc1c2occc2cc2ccc(=O)oc12 [PCM-0087924] | -19.5 | –

Row | Compound | inhibition at 10 µM [1] [%] | inhibition at 10 µM (read-out: BTK inhibition (%)) [%]
26 | COc1cc2c(cc1OC)C1Cc3ccc(OC)c(OC)c3CN1CC2 (stereo not shown) [PCM-0088127] | -14 | –
27 | C[C@@H]1O[C@@H](O[C@H]2[C@H](Oc3cc(O)c4c(c3)O[C@H](c3ccc(O)cc3)CC4=O)O[C@H](CO)[C@@H](O)[C@@H]2O)[C@H](O)[C@H](O)[C@H]1O [PCM-0088327] | -7 | –
28 | O=c1cc(-c2ccccc2)oc2cc(O)cc(O)c12 [PCM-0088446] | 34.2 | –
29 | COc1cc(O)c2c(c1)C(=O)c1cc(C)cc(O)c1C2=O [PCM-0088700] | 11.1 | –
30 | COc1cc([C@H]2Oc3cc([C@H]4Oc5cc(O)cc(O)c5C(=O)[C@@H]4O)ccc3O[C@@H]2CO)ccc1O [PCM-0088703] | 24.1 | –
31 | O=C(CCc1ccc(O)cc1)c1c(O)cc(O)cc1O[C@@H]1O[C@H](CO)[C@@H](O)[C@H](O)[C@H]1O [PCM-0089058] | 4.7 | –
32 | O=C(O)C(O)Cc1ccc(O)c(O)c1 (stereo not shown) [PCM-0089145] | 18.7 | –
33 | C[C@@H]1O[C@@H](Oc2c(-c3cc(O)c(O)c(O)c3)oc3cc(O)cc(O)c3c2=O)[C@H](O)[C@H](O)[C@H]1O [PCM-0089676] | -2.3 | –
34 | C[C@@H]1C(=O)O[C@H]2C[C@@]34[C@H]5C[C@@H](C(C)(C)C)[C@]36[C@@H](OC(=O)[C@@H]6O)O[C@@]4(C(=O)O5)[C@]21O [PCM-0089814] | -7.8 | –
35 | COc1ccc(O)cc1 [PCM-0090031] | 12.5 | –
36 | Nc1ncnc2c1ncn2[C@@H]1O[C@H](CO)[C@@H](O)[C@H]1O [PCM-0090045] | 14 | –
37 | CCN(CC)CCOc1ccc(C(=C(Cl)c2ccccc2)c2ccccc2)cc1 [PCM-0090069] | 13.2 | –
38 | CC[C@@H](CO)NCCN[C@@H](CC)CO [PCM-0090100] | 29.6 | –
39 | CN(C)c1ccc(C(=C2C=CC(=[N+](C)C)C=C2)c2ccc(N(C)C)cc2)cc1 [PCM-0090111] | 116 | –
40 | NC(=O)c1ccc[n+]([C@@H]2O[C@H](COP(=O)([O-])OP(=O)(O)OC[C@H]3O[C@@H](n4cnc5c(N)ncnc54)[C@H](O)[C@@H]3O)[C@@H](O)[C@H]2O)c1 [PCM-0090146] | -13.6 | –
41 | CC1=C(/C=C/C(C)=C/C=C/C(C)=C/C=C/C=C(C)/C=C/C=C(C)/C=C/C2=C(C)CCCC2(C)C)C(C)(C)CCC1 [PCM-0090171] | 24.7 | –
42 | O=C(O)c1ccccc1O [PCM-0090179] | -16.3 | –
43 | Nc1nc(=S)c2[nH]cnc2[nH]1 [PCM-0090185] | -1.6 | –
44 | COc1c(C)c2c(c(O)c1C/C=C(\C)CCC(=O)O)C(=O)OC2 [PCM-0090203] | 19.3 | –
45 | O=C(O)P(=O)(O)O [PCM-0090233] | 1.6 | –
46 | CN(C)CCc1c[nH]c2ccc(Cn3cncn3)cc12 [PCM-0090241] | -3.1 | –
47 | COc1cc2c(N3CCN(C(=O)Nc4ccc(OC(C)C)cc4)CC3)ncnc2cc1OCCCN1CCCCC1 [PCM-0090254] | -17 | –
48 | CN1C(C(=O)Nc2ccccn2)=C(O)c2sc(Cl)cc2S1(=O)=O [PCM-0090258] | -0.9 | –
49 | C#CCN[C@@H]1CCc2ccccc21 [PCM-0090264] | -9.3 | –
50 | C[C@@H]1CC(=O)NN=C1c1ccc(NN=C(C#N)C#N)cc1 [PCM-0090272] | 21.8 | –

Row | Compound | inhibition at 10 µM [1] [%] | inhibition at 10 µM (read-out: BTK inhibition (%)) [%]
51 | CCC(C)(C)c1ccc(CC(C)CN2C[C@@H](C)O[C@@H](C)C2)cc1 (stereo partly shown) [PCM-0090274] | -31.9 | –
52 | COc1ccc(-c2ccc3cc(C(=O)O)ccc3c2)cc1C12CC3CC(CC(C3)C1)C2 [PCM-0090276] | 29 | –
53 | Cc1ccc(Nc2c(F)cccc2Cl)c(CC(=O)O)c1 [PCM-0090280] | 6.9 | –
54 | O=C(O)c1ccccc1 [PCM-0090294] | -1.6 | –
55 | C/C=C/c1ccc(OC)cc1 [PCM-0090331] | 18.7 | –
56 | COC(=O)[C@H](c1ccccc1Cl)N1CCc2sccc2C1 [PCM-0090332] | 2.3 | –
57 | Cc1ccnc2c1NC(=O)c1cccnc1N2C1CC1 [PCM-0090346] | -3.1 | –
58 | CC(=O)Oc1ccccc1C(=O)Nc1ncc([N+](=O)[O-])s1 [PCM-0090347] | 17.9 | –
59 | CN1CCC(=C2c3ccccc3CCc3cccnc32)CC1 [PCM-0090351] | -2.8 | –
60 | O=P(O)(O)C(O)(Cc1cccnc1)P(=O)(O)O [PCM-0090360] | -3.4 | –
61 | C[N+](C)(C)C[C@H](O)CC(=O)[O-] [PCM-0090364] | 10.1 | –
62 | CCOc1nc2cccc(C(=O)OCc3oc(=O)oc3C)c2n1Cc1ccc(-c2ccccc2-c2noc(=O)[nH]2)cc1 [PCM-0090373] | 24.1 | –
63 | COc1ccc(C(=O)CC(=O)c2ccc(C(C)(C)C)cc2)cc1 [PCM-0090378] | -3.9 | –
64 | CCCCC1=NC2(CCCC2)C(=O)N1Cc1ccc(-c2ccccc2-c2nn[nH]n2)cc1 [PCM-0090383] | 4.3 | –
65 | CCOc1nc2cccc(C(=O)OC(C)OC(=O)OC3CCCCC3)c2n1Cc1ccc(-c2ccccc2-c2nn[nH]n2)cc1 (stereo not shown) [PCM-0090385] | 53.7 | –
66 | Cc1nc(-c2ccc(OCC(C)C)c(C#N)c2)sc1C(=O)O [PCM-0090390] | -3.4 | –
67 | CCN1CCN(c2cc3c(cc2F)c(=O)c(C(=O)O)cn3C2CC2)CC1 [PCM-0090392] | -11.9 | –
68 | COc1cc2c(cc1OC)C(=O)C(CC1CCN(Cc3ccccc3)CC1)C2 (stereo not shown) [PCM-0090394] | -23.8 | –
69 | COc1c(C)c2c(c(O)c1C/C=C(\C)CCC(=O)OCCN1CCOCC1)C(=O)OC2 [PCM-0090398] | -15.2 | –
70 | CC(C)n1c(/C=C/[C@H](O)C[C@H](O)CC(=O)O)c(-c2ccc(F)cc2)c2ccccc21 [PCM-0090402] | 15.9 | –
71 | CCCC[C@H](CC)COC(=O)/C=C/c1ccc(OC)cc1 [PCM-0090405] | 6.2 | –
72 | CN(C)CCc1c[nH]c2ccc(CS(=O)(=O)N3CCCC3)cc12 [PCM-0090415] | -0.8 | –
73 | CCCCC(=O)N(Cc1ccc(-c2ccccc2-c2nn[nH]n2)cc1)[C@H](C(=O)O)C(C)C [PCM-0090417] | -27.2 | –
